Results on 13 molecules are retold here after patent publication US8906935B2, “Thiazolyl- and oxazolyl-isoquinolinones and methods for using them” (priority 2008, dated 2014).

Structures are written as SMILES. pIC50: −log10 of the molar value. Structures can show the parent of a compound that is named as a salt.

T1 sequence (P09874 whole entry): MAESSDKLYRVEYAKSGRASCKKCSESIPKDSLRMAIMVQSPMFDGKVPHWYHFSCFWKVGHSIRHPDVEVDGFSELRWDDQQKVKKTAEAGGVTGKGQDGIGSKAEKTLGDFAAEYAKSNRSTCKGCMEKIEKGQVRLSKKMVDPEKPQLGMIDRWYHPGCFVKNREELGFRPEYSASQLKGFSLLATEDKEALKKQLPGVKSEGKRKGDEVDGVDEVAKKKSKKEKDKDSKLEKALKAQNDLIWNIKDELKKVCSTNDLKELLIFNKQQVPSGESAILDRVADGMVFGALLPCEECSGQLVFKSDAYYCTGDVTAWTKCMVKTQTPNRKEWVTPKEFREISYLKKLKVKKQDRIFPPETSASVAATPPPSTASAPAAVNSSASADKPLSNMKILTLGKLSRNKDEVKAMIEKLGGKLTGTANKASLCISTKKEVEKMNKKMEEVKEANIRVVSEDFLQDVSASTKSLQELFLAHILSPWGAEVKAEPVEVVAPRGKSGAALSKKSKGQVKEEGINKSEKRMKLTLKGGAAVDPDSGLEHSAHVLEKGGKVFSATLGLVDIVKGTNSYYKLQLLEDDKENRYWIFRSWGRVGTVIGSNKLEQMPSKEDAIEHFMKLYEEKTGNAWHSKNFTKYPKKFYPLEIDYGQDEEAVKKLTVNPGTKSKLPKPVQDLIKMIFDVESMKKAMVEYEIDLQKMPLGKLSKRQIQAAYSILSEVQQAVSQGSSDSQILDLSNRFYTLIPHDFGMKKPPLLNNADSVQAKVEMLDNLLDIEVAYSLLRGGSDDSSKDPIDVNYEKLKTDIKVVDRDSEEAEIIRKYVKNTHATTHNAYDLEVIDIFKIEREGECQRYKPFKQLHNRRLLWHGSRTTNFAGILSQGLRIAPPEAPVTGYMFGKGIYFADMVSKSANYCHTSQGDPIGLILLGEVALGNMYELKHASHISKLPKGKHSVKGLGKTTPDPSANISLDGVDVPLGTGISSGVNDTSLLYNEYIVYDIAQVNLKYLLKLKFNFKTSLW

The assay has as its target T1, hrPARP-1 (human recombinant) (Homo sapiens, UniProt P09874).
T1 construct: purchased Trevigen
The assay can be described thus: Functional assessment of human PARP-1 enzymatic activity. To be noted: 1 U hrPARP-1, 15 μg/mL activated DNA, 5 μM NAD+, 20 min room temperature, fluorescence readout. The format is biochemical. On the procedure:
Functional Assessment of Human PARP-1 Enzymatic Activity
hrPARP-1 (human recombinant, Trevigen), Activated DNA (Sigma), 6(5H)-phenanthridinone (PND), (Sigma), NAD+ (Calbiochem), PARP-1 assay buffer (50 mM Tris, 2 mM MgCl2, pH 8.0), 20% acetophenone in EtOH, 2 M KOH 88% formic acid, 110° C. oven, Flexstation Plate Reader.
Compound plates were prepared by making a series of 1:3 dilutions for each tested compound, 10 steps of each at 20 μL in DMSO starting from a concentration of 5 mM. NAD^+ (39 μL of a 6.4 μM solution) were added to each well of a 96-well flat bottom fluorescent assay plate. Test compound (1 μL) was added to each well. To initiate the reaction, 10 μL of PARP (contains 5 U of PARP and 75 μg/mL activated DNA) was added with a final 1 U hrPARP-1, 15 μg/mL activated DNA and 5 μM of NAD^+. The highest concentration used for test compounds was 100 μM. The plates were incubated at room temperature on a shaker, After 20 min, 20 μL of 2 M KOH and 20 μL of 20% acetophenone were added. The plate was incubated 10 min. at 4° C., and 90 μL of 88% formic acid was added. After incubating in a 110° C. oven for 5 min, the plate was cooled to room temperature and read of a Flexstation Plate Reader (excitation at 360 nm, emission at 445 nm).
LSW data analysis software was used to generate PARP-1 IC50s.
On to `CN(C)Cc1nc2c([nH]c(=O)c3ccccc32)s1` [Example 1, 2-[(Dimethylamino)methyl][1,3]thiazolo[5,4-c]isoquinolin-5(4H)-one hydrochloride], for which the pIC50 is 6.42.
For the molecule `CN(C)CC#Cc1nc2c([nH]c(=O)c3ccccc32)s1` [Example 2, 2-[3-(Dimethylamino)prop-1-yn-1-yl][1,3]thiazolo[5,4-c]isoquinolin-5(4H)-one], the pIC50 is 6.38.
Consider `CN(C)CCc1nc2c([nH]c(=O)c3ccccc32)s1` [Example 3, 2-(2-(Dimethylamino)ethyl)thiazolo[5,4-c]isoquinolin-5(4H)-one], for which the pIC50 is 6.45.
As for `CN(C)Cc1nc2c([nH]c(=O)c3cccc(O)c32)s1` [Example 4, 2-((Dimethylamino)methyl)-9-hydroxythiazolo[5,4-c]isoquinolin-5(4H)-one], the pIC50 was 7.00.
Then `O=c1[nH]c2sc(CN3CCOCC3)nc2c2c(O)cccc12` [Example 5, 9-Hydroxy-2-(morpholin-4-ylmethyl)[1,3]thiazolo[5,4-c]isoquinolin-5(4H)-one], with 7.74; and `O=c1[nH]c2sc(CN3CCCCC3)nc2c2c(O)cccc12` [Example 6, 9-Hydroxy-2-(piperidin-1-ylmethyl)[1,3]thiazolo[5,4-c]isoquinolin-5(4H)-one], with 5.86.
Then `O=c1[nH]c2sc(CN3CCCC3)nc2c2c(O)cccc12` [Example 7, 9-Hydroxy-2-(pyrrolidin-1-ylmethyl)[1,3]thiazolo[5,4-c]isoquinolin-5(4H)-one], with 6.95; and `CN(C)[C@@H]1CCN(Cc2nc3c([nH]c(=O)c4cccc(O)c43)s2)C1` [Example 8, 2-{[(3R)-3-(dimethylamino)pyrrolidin-1-yl]methyl}-9-hydroxy[1,3]thiazolo[5,4-c]isoquinolin-5(4H)-one], with 6.65; and `O=c1[nH]c2sc(CN3CCCC4CCCCC43)nc2c2c(O)cccc12` (stereo not shown) [Example 9, 9-Hydroxy-2-(octahydroquinolin-1(2H)-ylmethyl)[1,3]thiazolo[5,4-c]isoquinolin-5(4H)-one], with 5.61.
`C[C@@H]1CN(Cc2nc3c([nH]c(=O)c4cccc(O)c43)s2)C[C@H](C)O1` [Example 10, 2-{[(2R,6S)-2,6-Dimethylmorpholin-4-yl]methyl}-9-hydroxy[1,3]thiazolo[5,4-c]isoquinolin-5(4H)-one]: the pIC50 was 5.51.
Consider `CC1CCCN1Cc1nc2c([nH]c(=O)c3cccc(O)c32)s1` (stereo not shown) [Example 11, 9-Hydroxy-2-[(2-methylpyrrolidin-1-yl)methyl][1,3]thiazolo[5,4-c]isoquinolin-5(4H)-one], for which the pIC50 is 6.13.
On to `O=c1[nH]c2sc(CN3CCC[C@@H]3C(F)(F)F)nc2c2c(O)cccc12` [Example 12, 9-Hydroxy-2-{[(2R)-2-(trifluoromethyl)pyrrolidin-1-yl]methyl}[1,3]thiazolo[5,4-c]isoquinolin-5(4H)-one], for which the pIC50 was 5.46.
Then `C[C@@H]1CCC[C@H](C)N1Cc1nc2c([nH]c(=O)c3cccc(O)c32)s1` [Example 13, 2-{[(2R,6S)-2,6-Dimethylpiperidin-1-yl]methyl}-9-hydroxy[1,3]thiazolo[5,4-c]isoquinolin-5(4H)-one], with 5.82.

One may read the pIC50 as the IC50 on a negative log10 scale, so that one unit is a factor of ten.
